{"source": "patent US20090192135A1", "about": "“Human Niemann Pick C1-Like 1 Gene (NPC1L1) Polymorphisms and Methods of Use Thereof” (SCHERING CORPORATION, priority 2005, published 2009)", "origin": "cited, not measured here", "target": "T1, NPC1L1 (Homo sapiens, UniProt Q9UHC9)", "T1 sequence (Q9UHC9 22-1359)": "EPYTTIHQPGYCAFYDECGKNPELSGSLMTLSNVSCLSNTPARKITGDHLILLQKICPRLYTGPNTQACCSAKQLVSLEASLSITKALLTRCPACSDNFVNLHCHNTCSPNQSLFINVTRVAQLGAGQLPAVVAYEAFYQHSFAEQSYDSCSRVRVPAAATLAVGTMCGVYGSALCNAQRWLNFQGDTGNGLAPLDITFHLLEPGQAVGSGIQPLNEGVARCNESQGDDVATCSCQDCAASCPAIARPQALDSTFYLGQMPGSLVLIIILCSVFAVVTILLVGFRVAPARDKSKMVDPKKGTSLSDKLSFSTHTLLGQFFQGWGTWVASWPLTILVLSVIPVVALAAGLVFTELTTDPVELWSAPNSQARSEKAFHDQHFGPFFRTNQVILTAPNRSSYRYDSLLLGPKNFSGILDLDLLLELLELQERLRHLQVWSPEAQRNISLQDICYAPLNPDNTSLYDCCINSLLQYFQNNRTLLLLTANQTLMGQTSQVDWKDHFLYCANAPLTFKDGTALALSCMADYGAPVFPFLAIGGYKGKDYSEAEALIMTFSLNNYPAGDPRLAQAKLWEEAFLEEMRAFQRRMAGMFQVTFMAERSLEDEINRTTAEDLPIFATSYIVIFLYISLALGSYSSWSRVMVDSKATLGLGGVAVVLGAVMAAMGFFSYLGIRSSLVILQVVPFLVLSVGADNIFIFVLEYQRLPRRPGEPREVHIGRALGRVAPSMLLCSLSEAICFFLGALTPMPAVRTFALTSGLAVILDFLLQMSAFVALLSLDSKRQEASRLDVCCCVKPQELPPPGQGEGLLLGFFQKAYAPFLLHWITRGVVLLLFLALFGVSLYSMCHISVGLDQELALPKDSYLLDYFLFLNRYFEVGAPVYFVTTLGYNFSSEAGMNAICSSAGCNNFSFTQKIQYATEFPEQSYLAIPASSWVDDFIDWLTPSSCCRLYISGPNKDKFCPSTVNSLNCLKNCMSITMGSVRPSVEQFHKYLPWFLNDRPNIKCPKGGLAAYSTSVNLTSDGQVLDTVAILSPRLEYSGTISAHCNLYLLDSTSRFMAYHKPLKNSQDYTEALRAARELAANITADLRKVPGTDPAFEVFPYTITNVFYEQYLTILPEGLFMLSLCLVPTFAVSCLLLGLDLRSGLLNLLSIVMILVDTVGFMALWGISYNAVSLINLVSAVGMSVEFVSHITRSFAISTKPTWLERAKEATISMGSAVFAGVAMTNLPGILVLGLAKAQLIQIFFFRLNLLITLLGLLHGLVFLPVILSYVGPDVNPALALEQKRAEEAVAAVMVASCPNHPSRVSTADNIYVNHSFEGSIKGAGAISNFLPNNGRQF", "details": "co-administered with a statin; cited from earlier work"}
{"smiles": "O=C1[C@H](CC[C@H](O)c2ccc(F)cc2)[C@@H](c2ccc(O)cc2)N1c1ccc(F)cc1", "note": "[ezetimibe, 1-(4-fluorophenyl)-3(R)-[3-(4-fluorophenyl)-3(S)-hydroxypropyl]-4(S)-(4-hydroxyphenyl)-2-azetidinone]", "values": [{"measurement": "incremental LDL-C reduction attributable to ezetimibe", "value": "14-15%"}]}
